Consider twelve compounds from ChEMBL document CHEMBL5465560, “Selectivity Literature for EUbOPEN Chemogenomic Library” (2024).

Experiment [1] addresses Serine/threonine-protein kinase RIO2 (Homo sapiens) (UniProt Q9BVS4). The note with it: at 10 µM.
For experiment [2], the target named is T1, Serine/threonine-protein kinase RIO3 (Homo sapiens) (UniProt O14730).
T1 sequence (whole entry): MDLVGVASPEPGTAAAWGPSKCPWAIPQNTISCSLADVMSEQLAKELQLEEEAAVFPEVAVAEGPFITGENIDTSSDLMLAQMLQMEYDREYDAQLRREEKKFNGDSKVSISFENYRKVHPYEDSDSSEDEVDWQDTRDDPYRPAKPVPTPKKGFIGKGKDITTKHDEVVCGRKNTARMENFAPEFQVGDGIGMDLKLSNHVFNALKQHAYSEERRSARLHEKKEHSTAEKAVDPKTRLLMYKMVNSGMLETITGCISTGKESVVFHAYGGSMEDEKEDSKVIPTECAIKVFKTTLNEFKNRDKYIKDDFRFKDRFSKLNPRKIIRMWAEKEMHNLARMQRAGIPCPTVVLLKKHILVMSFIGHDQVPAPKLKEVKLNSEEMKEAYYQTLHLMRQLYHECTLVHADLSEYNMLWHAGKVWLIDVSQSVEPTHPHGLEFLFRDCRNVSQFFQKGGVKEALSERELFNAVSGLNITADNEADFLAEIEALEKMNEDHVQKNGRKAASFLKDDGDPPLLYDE
As to the kind of experiment: Selectivity interaction (KinomeScan (DiscoverX)) EUB0001049a RIOK3. The note with it: at 1 µM.

Experiment [3] deals with Protein kinase C eta type (Homo sapiens) (UniProt P24723). As to the kind of experiment: Selectivity interaction (KinomeScan (DiscoverX)) EUB0000695a PRKCH. The following applies: at 100 nM.
Sequence of Protein kinase C eta type (Homo sapiens) (P24723 whole entry): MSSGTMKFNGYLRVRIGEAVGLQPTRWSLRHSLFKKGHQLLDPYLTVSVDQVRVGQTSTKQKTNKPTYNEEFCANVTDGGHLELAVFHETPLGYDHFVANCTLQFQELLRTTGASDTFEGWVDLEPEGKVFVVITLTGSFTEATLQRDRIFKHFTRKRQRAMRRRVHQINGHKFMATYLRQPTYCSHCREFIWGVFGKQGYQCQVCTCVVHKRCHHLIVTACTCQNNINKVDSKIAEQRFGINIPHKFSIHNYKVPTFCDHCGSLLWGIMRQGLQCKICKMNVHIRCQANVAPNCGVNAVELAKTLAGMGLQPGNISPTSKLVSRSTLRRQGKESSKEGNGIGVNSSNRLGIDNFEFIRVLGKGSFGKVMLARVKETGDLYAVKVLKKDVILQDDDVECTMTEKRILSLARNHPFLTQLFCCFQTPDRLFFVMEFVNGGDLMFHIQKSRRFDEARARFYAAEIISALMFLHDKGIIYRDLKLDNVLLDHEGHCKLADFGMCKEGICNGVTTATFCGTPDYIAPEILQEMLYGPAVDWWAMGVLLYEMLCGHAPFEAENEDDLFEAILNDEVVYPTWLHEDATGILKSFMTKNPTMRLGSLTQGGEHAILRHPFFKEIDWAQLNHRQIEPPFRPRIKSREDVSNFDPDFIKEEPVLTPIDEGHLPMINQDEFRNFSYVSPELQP
Experiment [4] addresses Tyrosine-protein kinase SYK (Homo sapiens, UniProt P43405). Briefly: Selectivity interaction (KinomeScan (DiscoverX)) EUB0000695a SYK. The note with it: at 100 nM.
In experiment [5] the target is P2X purinoceptor 1 (Homo sapiens) (UniProt P51575). Briefly: Selectivity interaction (Eurofins CEREP Diversity Profile (receptors and ion channels)) EUB0000279b P2RX1. The following applies: at 10 µM.
Sequence of P2X purinoceptor 1 (Homo sapiens) (P51575 whole entry): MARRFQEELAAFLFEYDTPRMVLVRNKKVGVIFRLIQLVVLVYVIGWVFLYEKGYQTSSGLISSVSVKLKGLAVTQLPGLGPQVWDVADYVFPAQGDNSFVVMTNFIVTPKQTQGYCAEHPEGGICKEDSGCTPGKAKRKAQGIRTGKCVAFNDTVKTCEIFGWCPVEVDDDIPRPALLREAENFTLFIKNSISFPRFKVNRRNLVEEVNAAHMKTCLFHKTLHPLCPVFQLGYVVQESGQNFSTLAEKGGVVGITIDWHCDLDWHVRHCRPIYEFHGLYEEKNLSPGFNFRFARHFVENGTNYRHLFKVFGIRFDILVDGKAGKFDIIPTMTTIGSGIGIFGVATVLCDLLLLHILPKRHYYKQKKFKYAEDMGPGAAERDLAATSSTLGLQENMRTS
The target of experiment [6] is Non-receptor tyrosine-protein kinase TYK2 (Homo sapiens, UniProt P29597). Briefly: Selectivity interaction (KinomeScan (DiscoverX)) EUB0001868a TYK2. The note with it: at 1 µM.
For experiment [7], the target named is Tyrosine-protein kinase Blk (Homo sapiens) (UniProt P51451). As to the kind of experiment: Selectivity interaction (KinomeScan (DiscoverX)) EUB0000666a BLK. The note with it: at 10 µM.
Sequence of Tyrosine-protein kinase Blk (Homo sapiens) (P51451 2-505 limits assumed): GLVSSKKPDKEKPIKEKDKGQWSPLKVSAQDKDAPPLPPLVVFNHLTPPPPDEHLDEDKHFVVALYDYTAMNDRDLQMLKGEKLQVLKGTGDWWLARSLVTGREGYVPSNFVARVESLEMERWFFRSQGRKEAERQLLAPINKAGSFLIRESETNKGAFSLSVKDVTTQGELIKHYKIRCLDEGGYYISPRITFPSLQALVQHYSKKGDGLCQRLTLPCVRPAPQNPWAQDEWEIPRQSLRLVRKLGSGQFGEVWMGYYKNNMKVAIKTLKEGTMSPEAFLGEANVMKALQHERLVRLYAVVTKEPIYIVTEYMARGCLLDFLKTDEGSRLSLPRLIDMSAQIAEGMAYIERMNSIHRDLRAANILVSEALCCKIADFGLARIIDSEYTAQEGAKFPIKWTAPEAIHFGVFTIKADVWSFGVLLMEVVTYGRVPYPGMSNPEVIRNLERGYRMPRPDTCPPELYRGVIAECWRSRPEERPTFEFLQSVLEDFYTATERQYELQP
In experiment [8] the target is T2, Serine/threonine-protein kinase tousled-like 1 (Homo sapiens) (UniProt Q9UKI8).
T2 sequence (whole entry): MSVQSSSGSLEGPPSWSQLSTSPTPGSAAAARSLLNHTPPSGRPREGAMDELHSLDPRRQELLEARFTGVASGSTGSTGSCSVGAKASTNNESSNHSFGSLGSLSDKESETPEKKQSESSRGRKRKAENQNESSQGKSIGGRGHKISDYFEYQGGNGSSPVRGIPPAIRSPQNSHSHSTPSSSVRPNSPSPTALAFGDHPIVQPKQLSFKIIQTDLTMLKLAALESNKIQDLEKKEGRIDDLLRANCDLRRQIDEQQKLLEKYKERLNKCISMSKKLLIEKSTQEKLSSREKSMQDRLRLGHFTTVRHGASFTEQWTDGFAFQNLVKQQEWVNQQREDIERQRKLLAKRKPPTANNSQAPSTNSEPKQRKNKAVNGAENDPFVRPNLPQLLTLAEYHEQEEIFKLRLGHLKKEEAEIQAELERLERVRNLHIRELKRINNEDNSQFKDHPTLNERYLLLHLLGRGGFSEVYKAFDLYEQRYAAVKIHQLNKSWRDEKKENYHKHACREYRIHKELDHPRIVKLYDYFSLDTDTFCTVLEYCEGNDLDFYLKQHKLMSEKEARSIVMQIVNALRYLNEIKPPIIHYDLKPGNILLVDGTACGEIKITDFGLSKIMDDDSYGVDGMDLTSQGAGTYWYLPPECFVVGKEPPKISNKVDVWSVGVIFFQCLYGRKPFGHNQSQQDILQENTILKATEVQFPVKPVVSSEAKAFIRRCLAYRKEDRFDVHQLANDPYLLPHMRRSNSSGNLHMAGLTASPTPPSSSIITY
As to the kind of experiment: Selectivity interaction (KinomeScan (DiscoverX)) EUB0000666a TLK1. The note with it: at 10 µM.

Experiment [9] addresses Calcium/calmodulin-dependent protein kinase type 1 (Homo sapiens) (UniProt Q14012). As to the kind of experiment: Selectivity interaction (Adapta Assay) EUB0001632a CAMK1. The note with it: at 10 µM.
For experiment [10], the target named is Histone-lysine N-methyltransferase PRDM9 (Homo sapiens) (UniProt Q9NQV7). The note with it: at 1 µM.
Experiment [11] has as its target Cyclin-dependent kinase 2/cyclin A (Homo sapiens) (UniProt P24941+P20248+P78396). As to the kind of experiment: Selectivity interaction (SelectScreen profiling (Invitrogen)) EUB0000607a CDK2. Format: protein-complex assay. The following applies: at 2 µM.
For experiment [12], the target named is Epithelial discoidin domain-containing receptor 1 (Homo sapiens) (UniProt Q08345). Briefly: Selectivity interaction (KinomeScan (DiscoverX)) EUB0000607a DDR1. The note with it: at 10 µM.
Sequence of Epithelial discoidin domain-containing receptor 1 (Homo sapiens) (Q08345 whole entry, the tested form may be a part): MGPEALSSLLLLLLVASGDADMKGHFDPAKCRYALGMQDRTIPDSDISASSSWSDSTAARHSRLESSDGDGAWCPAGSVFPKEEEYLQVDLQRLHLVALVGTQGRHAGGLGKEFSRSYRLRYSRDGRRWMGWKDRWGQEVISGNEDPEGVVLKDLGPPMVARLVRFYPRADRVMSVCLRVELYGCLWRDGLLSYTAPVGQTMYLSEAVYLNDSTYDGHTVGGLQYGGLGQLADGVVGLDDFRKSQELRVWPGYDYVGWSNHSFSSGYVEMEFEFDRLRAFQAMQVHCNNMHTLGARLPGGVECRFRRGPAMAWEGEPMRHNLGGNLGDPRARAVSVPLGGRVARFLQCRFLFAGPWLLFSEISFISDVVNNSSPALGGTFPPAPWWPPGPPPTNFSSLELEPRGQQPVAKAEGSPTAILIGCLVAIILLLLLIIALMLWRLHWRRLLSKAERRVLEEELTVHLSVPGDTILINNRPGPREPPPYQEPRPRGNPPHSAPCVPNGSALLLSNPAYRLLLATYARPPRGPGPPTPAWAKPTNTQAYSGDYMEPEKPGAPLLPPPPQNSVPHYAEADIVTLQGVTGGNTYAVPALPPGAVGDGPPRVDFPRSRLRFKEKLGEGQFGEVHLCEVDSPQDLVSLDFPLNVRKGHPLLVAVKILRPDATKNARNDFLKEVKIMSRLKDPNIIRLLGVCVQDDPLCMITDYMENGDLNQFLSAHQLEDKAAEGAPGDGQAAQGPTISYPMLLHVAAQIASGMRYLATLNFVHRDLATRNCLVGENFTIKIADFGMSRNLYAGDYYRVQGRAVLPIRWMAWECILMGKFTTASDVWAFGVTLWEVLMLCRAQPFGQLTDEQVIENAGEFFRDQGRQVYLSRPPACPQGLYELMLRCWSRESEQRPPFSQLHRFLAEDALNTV
Experiment [13] deals with Ribosomal protein S6 kinase alpha-5 (Homo sapiens) (UniProt O75582). Briefly: Selectivity interaction (KinomeScan (DiscoverX)) EUB0000607a RPS6KA5. The note with it: at 10 µM.
Sequence of Ribosomal protein S6 kinase alpha-5 (Homo sapiens) (O75582 whole entry, looked up): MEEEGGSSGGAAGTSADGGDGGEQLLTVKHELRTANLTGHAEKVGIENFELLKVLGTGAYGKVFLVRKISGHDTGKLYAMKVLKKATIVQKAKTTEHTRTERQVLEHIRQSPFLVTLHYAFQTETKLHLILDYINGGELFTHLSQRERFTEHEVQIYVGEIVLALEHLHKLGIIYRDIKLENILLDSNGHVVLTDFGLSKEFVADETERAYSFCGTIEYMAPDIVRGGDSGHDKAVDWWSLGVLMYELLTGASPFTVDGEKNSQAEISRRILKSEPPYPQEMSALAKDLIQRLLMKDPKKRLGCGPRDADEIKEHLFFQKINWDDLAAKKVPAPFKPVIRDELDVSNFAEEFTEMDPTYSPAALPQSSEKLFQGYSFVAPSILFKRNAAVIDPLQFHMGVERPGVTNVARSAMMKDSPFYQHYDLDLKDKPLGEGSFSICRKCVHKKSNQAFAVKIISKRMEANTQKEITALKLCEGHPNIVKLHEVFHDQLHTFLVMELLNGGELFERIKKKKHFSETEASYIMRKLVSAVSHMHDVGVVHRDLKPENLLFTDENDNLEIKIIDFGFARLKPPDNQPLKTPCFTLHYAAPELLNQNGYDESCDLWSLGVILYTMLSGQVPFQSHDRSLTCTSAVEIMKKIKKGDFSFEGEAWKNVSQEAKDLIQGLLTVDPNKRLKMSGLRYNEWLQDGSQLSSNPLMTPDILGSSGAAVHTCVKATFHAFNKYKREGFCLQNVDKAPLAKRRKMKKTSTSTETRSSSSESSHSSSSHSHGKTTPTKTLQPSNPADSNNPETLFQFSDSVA
Experiment [14] addresses T3, Serine/threonine-protein kinase ULK3 (Homo sapiens) (UniProt Q6PHR2).
T3 sequence (whole entry): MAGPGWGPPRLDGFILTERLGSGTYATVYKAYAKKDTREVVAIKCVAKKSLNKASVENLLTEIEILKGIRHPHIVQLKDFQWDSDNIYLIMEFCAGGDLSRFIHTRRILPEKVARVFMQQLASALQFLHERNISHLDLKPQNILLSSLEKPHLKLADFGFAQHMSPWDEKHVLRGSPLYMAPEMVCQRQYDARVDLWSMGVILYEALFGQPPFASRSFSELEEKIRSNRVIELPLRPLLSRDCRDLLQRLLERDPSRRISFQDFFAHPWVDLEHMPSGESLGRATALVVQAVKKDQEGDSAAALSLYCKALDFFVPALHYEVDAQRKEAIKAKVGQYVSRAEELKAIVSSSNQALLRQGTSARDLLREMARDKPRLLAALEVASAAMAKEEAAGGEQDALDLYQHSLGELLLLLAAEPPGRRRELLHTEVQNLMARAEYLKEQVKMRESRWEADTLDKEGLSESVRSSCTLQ
Briefly: Selectivity interaction (ActivX KiNativ screen (kinase selectivity in THP-1 cell lysates)) EUB0000639a ULK3. Format: subcellular. The note with it: lysate, at 5 µM.

For experiment [15], the target named is 5'-AMP-activated protein kinase catalytic subunit alpha-1 (Homo sapiens, UniProt Q13131). Briefly: Selectivity interaction (KinomeScan (DiscoverX)) EUB0000311b PRKAA1. The note with it: at 1 µM.
Sequence of 5'-AMP-activated protein kinase catalytic subunit alpha-1 (Q13131 whole entry, looked up): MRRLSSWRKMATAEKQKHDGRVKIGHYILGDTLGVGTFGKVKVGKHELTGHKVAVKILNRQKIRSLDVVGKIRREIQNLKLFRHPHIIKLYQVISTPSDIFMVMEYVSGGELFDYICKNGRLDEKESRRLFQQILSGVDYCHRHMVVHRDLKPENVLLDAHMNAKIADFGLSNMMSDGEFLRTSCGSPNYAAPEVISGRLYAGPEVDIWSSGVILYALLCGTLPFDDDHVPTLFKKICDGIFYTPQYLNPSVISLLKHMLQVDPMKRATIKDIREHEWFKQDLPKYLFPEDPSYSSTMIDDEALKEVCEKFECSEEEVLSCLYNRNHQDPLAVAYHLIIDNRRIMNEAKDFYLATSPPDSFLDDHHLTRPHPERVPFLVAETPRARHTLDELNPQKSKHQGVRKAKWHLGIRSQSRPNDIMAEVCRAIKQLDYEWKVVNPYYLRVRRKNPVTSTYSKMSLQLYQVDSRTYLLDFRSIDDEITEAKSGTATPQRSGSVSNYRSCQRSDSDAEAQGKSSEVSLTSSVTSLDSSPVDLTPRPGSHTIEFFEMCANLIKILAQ
Experiment [16] has as its target Cyclin-dependent kinase 2 (Homo sapiens, UniProt P24941). As to the kind of experiment: Selectivity interaction (KinomeScan (DiscoverX)) EUB0001619a CDK2. The note with it: at 1 µM.

Sequence of Calcium/calmodulin-dependent protein kinase type 1 (Homo sapiens) (Q14012 whole entry, looked up): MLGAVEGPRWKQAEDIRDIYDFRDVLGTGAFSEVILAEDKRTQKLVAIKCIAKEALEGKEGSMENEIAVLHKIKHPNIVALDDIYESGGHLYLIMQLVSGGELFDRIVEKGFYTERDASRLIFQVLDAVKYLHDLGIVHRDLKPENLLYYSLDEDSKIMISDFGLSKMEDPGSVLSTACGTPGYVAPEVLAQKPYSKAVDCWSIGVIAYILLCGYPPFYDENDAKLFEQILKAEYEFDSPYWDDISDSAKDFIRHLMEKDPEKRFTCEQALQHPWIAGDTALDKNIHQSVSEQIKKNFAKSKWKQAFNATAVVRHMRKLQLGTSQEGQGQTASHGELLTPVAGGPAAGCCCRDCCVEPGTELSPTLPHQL
Sequence of Serine/threonine-protein kinase RIO2 (Homo sapiens) (Q9BVS4 whole entry, looked up): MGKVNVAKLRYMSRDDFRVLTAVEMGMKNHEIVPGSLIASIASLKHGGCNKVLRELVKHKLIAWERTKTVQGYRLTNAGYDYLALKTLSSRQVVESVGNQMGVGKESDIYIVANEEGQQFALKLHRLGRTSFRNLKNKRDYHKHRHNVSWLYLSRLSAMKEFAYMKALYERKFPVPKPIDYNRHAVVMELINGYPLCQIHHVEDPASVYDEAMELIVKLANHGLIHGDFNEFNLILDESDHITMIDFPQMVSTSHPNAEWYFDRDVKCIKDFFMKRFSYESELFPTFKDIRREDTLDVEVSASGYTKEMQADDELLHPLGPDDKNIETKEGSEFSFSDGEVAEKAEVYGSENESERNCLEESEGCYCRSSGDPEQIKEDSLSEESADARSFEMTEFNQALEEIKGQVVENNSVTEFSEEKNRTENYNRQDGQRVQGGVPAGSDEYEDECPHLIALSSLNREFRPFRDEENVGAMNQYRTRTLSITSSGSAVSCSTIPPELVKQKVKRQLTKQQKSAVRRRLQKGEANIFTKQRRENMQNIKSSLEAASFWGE

For `Cc1cc([C@@H](C)Nc2ccccc2C(=O)O)c2nc(N3CCOCC3)cc(=O)n2c1` [AZD-6482], in experiment [1], the % of control turned out to be 54%. Consider `COc1cc(Nc2nc(C)cc(-c3cnn4nc(OC)ccc34)n2)cc(C(F)(F)F)c1`, for which the % of control in [2] was 86%. For `Cc1cc(F)c(C(=O)Nc2cccc(-c3nncn3C(C)C)n2)cc1-n1cnc(C2CC2)c1`, the % of control in experiment [3] was 91%; in experiment [4], 76%.

In turn, `CC(=O)c1cc(-c2ccccc2OCC2CC2)c2ncccn12` had a % of control in experiment [5] of 89%.

As for `Cc1cc(-c2ccnc(Nc3cnn(C)c3)n2)ccc1CNC(=O)N1CC(OC(C)C)C1`, the % of control in [6] is 47%.

For `O=C(NOC[C@H](O)CO)c1ccc(F)c(F)c1Nc1ccc(I)cc1F`, the values for the % of control in [7] and in experiment [8] were 83% and 89%, respectively. Take `Cn1cc(-n2cnc3c(NCc4nc5cc(Cl)c(Cl)cc5[nH]4)nc(N4CCOCC4)nc32)cn1`: in experiment [9], the % of inhibition was determined as 18.6%. `CNCCN1CCC(c2cc(CN(C)C(=O)c3cccc(Oc4ccccc4)c3)ccn2)CC1`: the % activity in [10] is above 90%.

Consider `CNC(=O)Nc1ccc(-c2nc(N3CC4CCC(C3)O4)c3cnn(C4CCC5(CC4)OCCO5)c3n2)cc1`, for which the % of inhibition in experiment [11] was found to be 0%. Also, the % of control in experiment [12] came to 66%; in experiment [13], 90%. With `CC[C@@H]1[C@H](F)C(=O)N[C@@H]1COc1nccc2cc(C(N)=O)c(OC)cc12` [ZIMLOVISERTIB], the % of inhibition in [14] was -10.2%. In turn, `CCc1ccccc1C(=O)Nc1n[nH]c2c(C)c(F)c(C3C(C#N)=C(C)N(C)C(C)=C3C#N)cc12` [BAY-3827] returned a % of control in experiment [15] of 7.5%. `N#Cc1cccc(-c2c[nH]c3ncnc(N4CCOCC4)c23)c1` returned a % of control in experiment [16] of 89%.
